Assay results: patent US20110136151A1, “ASSAYS FOR DIAGNOSING AND EVALUATING TREATMENT OPTIONS FOR POMPE DISEASE” (AMICUS THERAPEUTICS, INC., priority 2008, published 2011)

Experiments:
[1] = target: T1, GAA (Mus musculus, UniProt P70699); assay: GAA levels after longer treatment of wild type mice; type: in vivo; details: treatment 4-13 weeks
T1 construct: treatment of wild type mice and cynomolgus monkeys for longer periods of time; from tissue; host or cells: wild type mice

[2] = test system: acid α-glucosidase (GAA); assay: Ex vivo GAA enhancement assay in Pompe patient-derived lymphoblast cell lines treated with DNJ (4-MU-alpha-Glc lysate activity); type: cell-based, human; details: five days
Experimental: Lymphoblast cell lines were derived from 26 patients and treated with DNJ (0, 30, 100 and 300 μM) for five days. Lymphoblastoid cell lines (LCLs) are leukocyte cultures (primarily B cells) that have been transformed with the Epstein-Barr Virus (EBV) to produce proliferative suspension cultures. Leukocyte cultures were prepared as described in Example 2, and transformed with the EBV to establish the lymphoblast cells. Because well established LCLs can be very fast-growing (even those with genetic and metabolic disorders), their density must be carefully controlled to prevent overcrowding over an extended period. The following protocol details cell seeding density, treatment with a test compound (i.e. DNJ) treatment compound washout, lysing, and assaying of LCLs for the measurement of acid α-glucoside (GAA) with the test compound.
• 1. All cell culture work was performed in a BLII Bio-safety cabinet using sterile techniques. LCL culture was expanded to a T75 by transferring 7e^6-1e^7 cells total to a T75 and add 40 ml 37° C. complete growth media. • 2. Optimal LCL cultures were selected in T75 flasks based on cell density and viability. A cell count was performed on these cultures. Usually a cell density of 1e^6 cells/ml maintains LCLs at the highest viability (90-98% viable). Cells densities higher than 1e^6 cells/ml drastically reduce the overall viability in the culture. • 3. A sterile 50 ml conical centrifuge tube was used to prepare a cell suspension in the appropriate amount of complete growth media to obtain a final cell density of approximately 2.0×10^5 cells/ml at a volume of at least 20 ml. (For example, if the original culture contains 1e^6 cells/ml, 16 ml media should be added to 4 ml of the cell suspension in the staging tube to create a density of 2e^5 cells/ml in a volume of 20 ml.). Cell suspensions were dispensed into four labeled T25 flasks at 5 ml each total volume. This process is repeated for each LCL to be processed. All flasks were placed in a humidified 5% CO2 37° C. incubator overnight. The original T75 cultures can be expanded and returned to the same incubator, if necessary. 5. Treatment with Test Compound • 1. Treatment of the cells with the DNJ test compound was performed 24 hours after the cells were seeded into T25 flasks. • 2. 5 ml of each treatment concentration is required for each cell line. Cell lines were treated with test compound over a concentration range of 0, x, 3x, and 10x test compound. • 3. A 2x stock of test compound solution was prepared in sterile 15 ml or 50 ml centrifuge tubes for each condition and 5 ml solution was added to 5 ml pre-incubated culture. Stock concentrations of 0, 60, 200, and 600 μM DNJ were made; when added to the flasks, the final concentrations were 0, 30, 100, and 300 μM DNJ. • 4. Each set of flasks were marked with the appropriate treatment concentrations, and 5 ml from the corresponding stock suspension were added to each flask. All flasks were returned to the incubator for 5 days.
• 1. After five days (120 hours) of treatment, 100% of the media was exchanged in the cell suspension with compound-free complete media in the following manner; • 2. The contents of each T25 was transferred to a sterile 15 ml conical centrifuge tube that had been pre-numbered to maintain order of concentration range. • 3. After each set was transferred, each T25 was washed with 5 ml blank RPMI 1640 (no phenol red). • 4. The tubes were centrifuged at 21° C. for 10 min at 600 g. During the spin, the blank RPMI was removed from the flasks by aspiration, maintaining sterility. • 5. Following the centrifugation, the supernatant was removed from the tubes by aspiration and the pellets were resuspended in 10 ml complete media. The cell suspensions were transferred back to their respective flasksAll flasks were returned to the 5% CO2 37° C. incubator overnight.

[3] = test system: GAA; assay: GAA levels after longer treatment of cynomolgus monkeys; type: in vivo; details: treatment 4-13 weeks
[4] = 24/26 patient lymphoblast cell lines, DNJ 30-300 μM
[5] = patient cell lines with at least one missense mutation
[6] = patient cell lines with one copy of IVS1 13T>G and one copy of a non-missense null mutation

T1 sequence (P70699 70-953): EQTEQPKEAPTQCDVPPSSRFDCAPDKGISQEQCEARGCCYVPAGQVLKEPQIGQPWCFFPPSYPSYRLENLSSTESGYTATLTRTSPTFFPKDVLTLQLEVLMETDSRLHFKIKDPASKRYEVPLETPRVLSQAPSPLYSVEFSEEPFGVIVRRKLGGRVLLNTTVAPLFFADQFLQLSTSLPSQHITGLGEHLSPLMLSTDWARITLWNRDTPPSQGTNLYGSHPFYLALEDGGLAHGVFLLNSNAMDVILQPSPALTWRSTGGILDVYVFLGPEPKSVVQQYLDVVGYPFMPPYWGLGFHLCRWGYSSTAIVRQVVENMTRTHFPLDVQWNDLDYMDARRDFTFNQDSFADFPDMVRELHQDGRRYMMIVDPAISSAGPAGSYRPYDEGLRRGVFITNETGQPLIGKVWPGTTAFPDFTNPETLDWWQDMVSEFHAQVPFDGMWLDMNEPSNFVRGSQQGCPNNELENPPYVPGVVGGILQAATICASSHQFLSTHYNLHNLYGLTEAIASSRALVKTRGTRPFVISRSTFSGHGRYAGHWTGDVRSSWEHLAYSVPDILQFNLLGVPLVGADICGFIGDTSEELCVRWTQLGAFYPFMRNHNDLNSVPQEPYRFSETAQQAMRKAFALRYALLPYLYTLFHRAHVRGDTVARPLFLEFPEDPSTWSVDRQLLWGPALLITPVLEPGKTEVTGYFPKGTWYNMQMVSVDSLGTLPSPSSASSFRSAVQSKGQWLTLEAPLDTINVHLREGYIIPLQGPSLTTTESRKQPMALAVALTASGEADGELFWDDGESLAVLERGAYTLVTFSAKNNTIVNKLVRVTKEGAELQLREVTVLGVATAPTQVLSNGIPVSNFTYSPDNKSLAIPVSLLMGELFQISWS

## OC[C@H]1NCC(O)[C@@H](O)C1O (stereo partly drawn) [DNJ, 1-deoxynojirimycin]
[1]
  increase in GAA levels: ≥ 2 fold
[2]; [4]
  increase in GAA levels, mean: 93%
  increase in GAA levels, range: 7-620%
[2]; [5]
  dose-dependent increase in GAA levels, mean: 219%
  dose-dependent increase in GAA levels, range: 7-620%
[2]; [6]
  increase in GAA levels, mean: 22%
  increase in GAA levels, range: 7-51%
[2]; patient-derived lymphoblasts, DNJ 0, 30, 100 and 300 μM
  patient cell lines with dose-dependent increase in GAA levels: 24/26
[3]
  increase in GAA levels: ≥ 2 fold
